Consider 4 compounds from ChEMBL document CHEMBL1201862, “PubChem BioAssay data set” (2004).

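Values below derive from 48-hour exposures of cells grown in 96-well plates, with endpoints linearly interpolated between the two concentrations bracketing the appropriate inhibition level. GI50: concentration for 50% inhibition of growth.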 Activity calls are given as the source filed them. Cut-off read from the data, not from the text of the source: active = GI50 up to about 1.1 µM and inactive = higher.

Test systems include SF-295; LXFL 529; NCI/ADR-RES; ACHN; SK-MEL-5; CCRF-CEM; MOLT-4; EKVX; SF-539; CAKI-1; SK-MEL-2; MCF7; M14; SK-OV-3; SN12C; KM12; RXF 393; T47D; IGROV-1; HOP-62.
What all share (assay): NCI anticancer screen, dose series, 48 h

In the case of `COc1cccc2c1C(CO)N1C(C#N)C3CC(C(=O)O)C(C1C2)N3C` (configuration not stated), the GI50 with SF-295 is 4.7 µM (inactive); in the test with LXFL 529 it was 2.56 µM (inactive); with NCI/ADR-RES, 0.367 µM (active); with ACHN, 3.36 µM (inactive); in the test with SK-MEL-5 it was 1.69 µM (inactive); in the test with CCRF-CEM it was 1.1 µM (active). Also, the GI50 is 1.48 µM (inactive) with MOLT-4; 6.19 µM (inactive) in the test on EKVX; 1.41 µM (inactive) in the test with SF-539; 1.29 µM (inactive) in the test with CAKI-1; 1.21 µM (inactive) in the test with SK-MEL-2; 0.272 µM (active) in the test on MCF7. Also, the GI50 in the test on M14 was 4.37 µM (inactive); with SK-OV-3, 3.6 µM (inactive); with SN12C, 1.64 µM (inactive); in the test on KM12, 1.98 µM (inactive); in the test on RXF 393 it was 1.27 µM (inactive); with T47D, 0.324 µM (active).
Turning to `c1ccc(CN2COc3c(ccc4c5c(ccc34)CN(Cc3ccccc3)CO5)C2)cc1`, the GI50 in the test with IGROV-1, in the test with HOP-62, with SF-295, in the test on LXFL 529, in the test with NCI/ADR-RES and with ACHN was > 100 µM (inactive) in each case. In addition, the GI50 in the test with SK-MEL-5, in the test on CCRF-CEM, with MOLT-4, in the test with EKVX, in the test on SF-539 and in the test on CAKI-1 was > 100 µM (inactive) throughout. Moreover, the GI50 in the test on SK-MEL-2, in the test on MCF7, in the test on M14, in the test on SK-OV-3, in the test on SN12C and in the test on KM12 was > 100 µM (inactive) throughout. For the same compound, the GI50 with RXF 393 and in the test with T47D was > 100 µM (inactive) throughout.
`COC(=O)C1(O)c2ccccc2N=C2C1CCN2C` (configuration not stated): the GI50 with IGROV-1, in the test on HOP-62, in the test with SF-295, with LXFL 529, with ACHN and in the test with SK-MEL-5 was > 100 µM (inactive) in each case. The GI50 with CCRF-CEM, in the test with MOLT-4, in the test on EKVX, with SF-539, in the test with CAKI-1 and with SK-MEL-2 was > 100 µM (inactive) in each case. The GI50 in the test with M14, in the test on SK-OV-3, in the test on SN12C, with KM12 and with RXF 393 was > 100 µM (inactive) each time.
As for `CS/C(=N\c1nccs1)NC(=O)c1cccc(Cl)c1`, the GI50 in the test on IGROV-1 was > 100 µM (inactive); in the test on HOP-62 it was > 100 µM (inactive); in the test on SF-295, 77.8 µM (inactive); in the test with LXFL 529 it was 91 µM (inactive); in the test with ACHN, > 100 µM (inactive); with SK-MEL-5 it was > 100 µM (inactive). Further, the GI50 in the test on CCRF-CEM was 72.6 µM (inactive); in the test on MOLT-4, 31 µM (inactive); with EKVX, 19 µM (inactive); in the test on SF-539 it was > 100 µM (inactive); in the test on CAKI-1 it was 50.5 µM (inactive); in the test on SK-MEL-2, > 100 µM (inactive). For the same compound, the GI50 with M14 was > 100 µM (inactive); in the test on SK-OV-3 it was > 100 µM (inactive); in the test on SN12C, 79.4 µM (inactive); with KM12, > 100 µM (inactive); in the test on RXF 393, > 100 µM (inactive).
